Assays:
[1] = target: T1, Ephrin type-A receptor 8 (Homo sapiens) (UniProt P29322); assay: Inhibition of human recombinant EphA8 at 40 nM related to control ULK1
T1 sequence (whole entry): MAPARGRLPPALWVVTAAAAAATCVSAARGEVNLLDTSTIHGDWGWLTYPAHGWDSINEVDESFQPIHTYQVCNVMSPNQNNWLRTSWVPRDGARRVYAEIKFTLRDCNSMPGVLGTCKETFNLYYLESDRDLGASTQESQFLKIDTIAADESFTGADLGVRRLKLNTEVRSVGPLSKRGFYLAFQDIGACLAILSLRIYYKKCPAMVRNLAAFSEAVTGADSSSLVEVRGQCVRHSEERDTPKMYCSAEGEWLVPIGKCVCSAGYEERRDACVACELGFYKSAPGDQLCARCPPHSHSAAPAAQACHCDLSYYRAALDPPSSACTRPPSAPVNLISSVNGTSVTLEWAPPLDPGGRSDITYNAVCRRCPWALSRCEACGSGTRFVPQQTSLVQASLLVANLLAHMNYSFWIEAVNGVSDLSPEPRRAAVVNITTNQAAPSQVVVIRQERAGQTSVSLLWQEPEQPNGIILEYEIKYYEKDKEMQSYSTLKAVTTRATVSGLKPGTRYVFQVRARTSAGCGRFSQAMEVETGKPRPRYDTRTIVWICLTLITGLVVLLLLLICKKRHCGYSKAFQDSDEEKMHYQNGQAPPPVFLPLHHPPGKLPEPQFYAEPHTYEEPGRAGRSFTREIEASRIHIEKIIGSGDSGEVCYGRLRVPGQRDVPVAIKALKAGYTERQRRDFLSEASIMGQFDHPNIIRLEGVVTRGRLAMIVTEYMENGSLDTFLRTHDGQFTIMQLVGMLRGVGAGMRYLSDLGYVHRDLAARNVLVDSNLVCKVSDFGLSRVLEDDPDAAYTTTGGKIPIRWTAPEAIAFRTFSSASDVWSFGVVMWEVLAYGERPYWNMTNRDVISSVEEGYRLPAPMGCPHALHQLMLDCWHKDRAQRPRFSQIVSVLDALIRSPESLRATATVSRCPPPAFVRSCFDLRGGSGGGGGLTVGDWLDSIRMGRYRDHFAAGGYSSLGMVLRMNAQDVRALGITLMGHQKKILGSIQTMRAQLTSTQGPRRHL

[2] = target: T2, Tyrosine-protein kinase Mer (Homo sapiens) (UniProt Q12866); assay: Inhibition of human recombinant MER at 500 nM related to control ULK1
T2 sequence (whole entry): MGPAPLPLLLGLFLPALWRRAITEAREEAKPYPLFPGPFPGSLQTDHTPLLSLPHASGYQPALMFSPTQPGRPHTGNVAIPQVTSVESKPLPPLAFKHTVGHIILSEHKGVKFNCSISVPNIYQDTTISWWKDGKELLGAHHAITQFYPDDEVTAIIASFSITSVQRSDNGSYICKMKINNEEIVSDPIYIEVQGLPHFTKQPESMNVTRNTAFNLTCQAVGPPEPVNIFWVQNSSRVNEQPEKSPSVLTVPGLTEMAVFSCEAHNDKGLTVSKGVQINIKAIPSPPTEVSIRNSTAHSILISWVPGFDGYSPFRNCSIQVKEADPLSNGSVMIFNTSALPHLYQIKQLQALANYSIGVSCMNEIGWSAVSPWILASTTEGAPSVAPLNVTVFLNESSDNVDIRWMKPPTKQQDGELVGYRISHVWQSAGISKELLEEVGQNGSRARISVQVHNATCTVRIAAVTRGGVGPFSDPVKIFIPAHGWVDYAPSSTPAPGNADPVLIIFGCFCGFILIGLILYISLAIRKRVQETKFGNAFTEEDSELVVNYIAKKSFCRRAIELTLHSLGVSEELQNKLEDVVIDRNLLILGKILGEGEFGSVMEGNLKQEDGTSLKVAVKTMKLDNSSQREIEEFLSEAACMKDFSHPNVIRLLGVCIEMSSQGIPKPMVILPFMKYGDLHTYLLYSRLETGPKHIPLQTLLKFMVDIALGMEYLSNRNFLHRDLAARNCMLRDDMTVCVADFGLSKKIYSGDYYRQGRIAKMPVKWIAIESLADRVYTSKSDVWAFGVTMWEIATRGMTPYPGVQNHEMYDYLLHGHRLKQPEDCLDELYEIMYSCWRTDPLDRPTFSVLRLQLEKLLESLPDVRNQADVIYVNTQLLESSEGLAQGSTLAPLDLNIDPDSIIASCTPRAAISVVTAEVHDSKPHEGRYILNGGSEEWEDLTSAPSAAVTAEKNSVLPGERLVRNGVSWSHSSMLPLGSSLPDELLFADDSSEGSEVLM

[3] = target: Serine/threonine-protein kinase MRCK beta (Homo sapiens) (UniProt Q9Y5S2); assay: Inhibition of human recombinant MRCKb at 15 nM related to control ULK1
Chain of Serine/threonine-protein kinase MRCK beta (Homo sapiens) (Q9Y5S2 whole entry): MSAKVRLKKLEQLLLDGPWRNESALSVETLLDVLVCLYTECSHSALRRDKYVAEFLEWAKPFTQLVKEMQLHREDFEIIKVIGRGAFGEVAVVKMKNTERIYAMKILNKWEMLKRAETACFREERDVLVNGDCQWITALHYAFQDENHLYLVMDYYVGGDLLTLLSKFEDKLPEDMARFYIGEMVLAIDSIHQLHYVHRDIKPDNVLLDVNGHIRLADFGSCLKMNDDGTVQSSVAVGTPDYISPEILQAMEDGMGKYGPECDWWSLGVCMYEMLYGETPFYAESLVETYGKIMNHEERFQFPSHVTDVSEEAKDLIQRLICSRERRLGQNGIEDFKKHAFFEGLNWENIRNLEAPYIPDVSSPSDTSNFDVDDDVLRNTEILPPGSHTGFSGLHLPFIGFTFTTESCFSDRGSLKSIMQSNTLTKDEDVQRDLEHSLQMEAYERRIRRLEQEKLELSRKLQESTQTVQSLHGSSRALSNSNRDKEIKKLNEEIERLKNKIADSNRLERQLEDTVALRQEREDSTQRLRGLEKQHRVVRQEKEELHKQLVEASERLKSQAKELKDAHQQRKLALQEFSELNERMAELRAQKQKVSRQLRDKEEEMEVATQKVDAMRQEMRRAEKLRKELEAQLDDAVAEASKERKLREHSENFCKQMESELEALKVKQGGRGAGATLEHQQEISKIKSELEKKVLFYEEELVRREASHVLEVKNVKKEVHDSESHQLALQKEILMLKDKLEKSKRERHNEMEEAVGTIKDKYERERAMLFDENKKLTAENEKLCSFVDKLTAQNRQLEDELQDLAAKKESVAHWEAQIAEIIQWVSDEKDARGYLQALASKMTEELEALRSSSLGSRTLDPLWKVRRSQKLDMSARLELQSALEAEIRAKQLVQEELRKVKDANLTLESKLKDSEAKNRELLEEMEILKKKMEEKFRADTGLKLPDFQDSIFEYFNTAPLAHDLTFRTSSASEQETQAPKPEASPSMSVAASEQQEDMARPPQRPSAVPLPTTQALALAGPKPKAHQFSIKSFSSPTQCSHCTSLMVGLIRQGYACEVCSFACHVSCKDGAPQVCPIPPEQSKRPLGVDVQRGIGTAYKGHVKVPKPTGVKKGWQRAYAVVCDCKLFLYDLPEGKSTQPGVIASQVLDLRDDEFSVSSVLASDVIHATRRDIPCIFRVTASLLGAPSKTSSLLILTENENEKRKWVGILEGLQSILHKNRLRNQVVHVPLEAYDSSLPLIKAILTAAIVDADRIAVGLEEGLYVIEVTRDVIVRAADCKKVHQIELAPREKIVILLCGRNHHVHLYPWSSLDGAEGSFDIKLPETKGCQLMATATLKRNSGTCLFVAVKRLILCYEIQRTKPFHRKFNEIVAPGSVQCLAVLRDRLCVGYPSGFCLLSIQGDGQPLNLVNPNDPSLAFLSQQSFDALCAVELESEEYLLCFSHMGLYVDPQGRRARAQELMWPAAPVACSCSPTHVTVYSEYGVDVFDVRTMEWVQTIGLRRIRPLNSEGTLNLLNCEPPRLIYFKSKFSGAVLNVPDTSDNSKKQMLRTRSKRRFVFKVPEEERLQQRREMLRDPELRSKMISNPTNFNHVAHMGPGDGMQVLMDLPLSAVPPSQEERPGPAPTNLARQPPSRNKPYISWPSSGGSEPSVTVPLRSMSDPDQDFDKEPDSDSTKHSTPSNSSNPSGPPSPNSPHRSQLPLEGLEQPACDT

[4] = target: T3, Mitogen-activated protein kinase 13 (Homo sapiens) (UniProt O15264); assay: Inhibition of human recombinant p38delta at 15 nM related to control ULK1
T3 sequence (whole entry): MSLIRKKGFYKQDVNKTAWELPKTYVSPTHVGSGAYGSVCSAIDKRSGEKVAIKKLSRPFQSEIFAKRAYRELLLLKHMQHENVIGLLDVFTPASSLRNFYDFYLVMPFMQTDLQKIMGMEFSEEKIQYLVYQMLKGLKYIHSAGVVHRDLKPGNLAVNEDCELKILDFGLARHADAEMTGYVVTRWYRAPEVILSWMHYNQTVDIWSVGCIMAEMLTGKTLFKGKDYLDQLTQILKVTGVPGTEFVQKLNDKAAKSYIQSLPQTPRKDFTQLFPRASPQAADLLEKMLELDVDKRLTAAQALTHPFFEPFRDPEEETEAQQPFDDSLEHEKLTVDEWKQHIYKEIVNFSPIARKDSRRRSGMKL

O=C(N[C@@H](C1CC1)C(F)(F)F)c1cc(-c2cnn3cc(-c4ccc(F)cc4)cnc23)cs1
fold change (FC) [1]: 0

CNC(=O)c1ccccc1Oc1nc(Nc2cc(OC)c(OC)c(OC)c2)ncc1Br
fold change (FC) [2]: 0.12

CC(C)[C@H](NC(=O)c1cc(-c2cnn3cc(-c4ccc(OCCN5CCCCC5)cc4)cnc23)cs1)C(F)(F)F
fold change (FC) [3]: 0.07
fold change (FC) [4]: 0.07
